From PubChem BioAssay (NCI)
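Method: 48-hour compound exposure of cells in 96-well plates, five concentrations, linear interpolation of endpoints. Definition used: TGI = concentration required for complete inhibition of growth.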

Key:
Test in all cases: inhibition of tumour cell growth, NCI panel, 48 h
MDA-MB-231 breast = tested on: MDA-MB-231 breast
HCT-15 colon = tested on: HCT-15 colon
TK-10 renal = tested on: TK-10 renal
OVCAR-4 ovarian = tested on: OVCAR-4 ovarian
SNB-75 CNS = tested on: SNB-75 CNS
K-562 leukemia = tested on: K-562 leukemia
SF-268 CNS = tested on: SF-268 CNS
SF-539 CNS = tested on: SF-539 CNS
786-0 renal = tested on: 786-0 renal
SNB-19 CNS = tested on: SNB-19 CNS
EKVX NSCLC = tested on: EKVX NSCLC
NCI-H522 lung = tested on: NCI-H522 lung
HOP-62 NSCLC = tested on: HOP-62 NSCLC
MDA-N = tested on: MDA-N
T-47D breast = tested on: T-47D breast
UACC-62 melanoma = tested on: UACC-62 melanoma
CCRF-CEM leukemia = tested on: CCRF-CEM leukemia
SF-295 CNS = tested on: SF-295 CNS
HT29 colon = tested on: HT29 colon
HS 578T breast = tested on: HS 578T breast
MDA-MB-435 = tested on: MDA-MB-435
HCT-116 colon = tested on: HCT-116 colon
MOLT-4 leukemia = tested on: MOLT-4 leukemia
SK-MEL-2 melanoma = tested on: SK-MEL-2 melanoma
UACC-257 melanoma = tested on: UACC-257 melanoma
CAKI-1 renal = tested on: CAKI-1 renal
NCI/ADR-RES ovarian = tested on: NCI/ADR-RES ovarian
LOX IMVI melanoma = tested on: LOX IMVI melanoma
DU-145 prostate = tested on: DU-145 prostate
RXF 393 renal = tested on: RXF 393 renal
NCI-H23 lung = tested on: NCI-H23 lung
MCF7 breast = tested on: MCF7 breast
M14 melanoma = tested on: M14 melanoma
BT-549 breast = tested on: BT-549 breast
SW-620 colon = tested on: SW-620 colon
SK-OV-3 ovarian = tested on: SK-OV-3 ovarian
ACHN renal = tested on: ACHN renal
SK-MEL-28 melanoma = tested on: SK-MEL-28 melanoma
IGROV1 ovarian = tested on: IGROV1 ovarian
COLO 205 colon = tested on: COLO 205 colon
NCI-H460 lung = tested on: NCI-H460 lung
U251 CNS = tested on: U251 CNS
UO-31 renal = tested on: UO-31 renal
OVCAR-5 ovarian = tested on: OVCAR-5 ovarian
A549 NSCLC = tested on: A549 NSCLC
SN12C renal = tested on: SN12C renal
KM12 colon = tested on: KM12 colon
PC-3 prostate = tested on: PC-3 prostate
SK-MEL-5 melanoma = tested on: SK-MEL-5 melanoma
NCI-H226 lung = tested on: NCI-H226 lung
MALME-3M melanoma = tested on: MALME-3M melanoma
HOP-92 NSCLC = tested on: HOP-92 NSCLC
OVCAR-8 ovarian = tested on: OVCAR-8 ovarian
OVCAR-3 ovarian = tested on: OVCAR-3 ovarian
A498 renal = tested on: A498 renal
HL-60(TB) leukemia = tested on: HL-60(TB) leukemia
HCC-2998 colon = tested on: HCC-2998 colon
RPMI-8226 leukemia = tested on: RPMI-8226 leukemia

SMILES: CN(C)CN1C(=O)/C(=N\n2c(-c3ccncc3)n[nH]c2=S)c2ccccc21
- TGI (MDA-MB-231 breast): > 100 µM
- TGI (HCT-15 colon): > 100 µM
- TGI (TK-10 renal): > 100 µM
- TGI (OVCAR-4 ovarian): 45.2 µM
- TGI (SNB-75 CNS): > 100 µM
- TGI (K-562 leukemia): > 100 µM
- TGI (SF-268 CNS): > 100 µM
- TGI (SF-539 CNS): 52.4 µM
- TGI (786-0 renal): 41.6 µM
- TGI (SNB-19 CNS): > 100 µM
- TGI (EKVX NSCLC): > 100 µM
- TGI (NCI-H522 lung): 45.1 µM
- TGI (HOP-62 NSCLC): 84.7 µM
- TGI (MDA-N): 31.8 µM
- TGI (T-47D breast): > 100 µM
- TGI (UACC-62 melanoma): > 100 µM
- TGI (CCRF-CEM leukemia): > 100 µM
- TGI (SF-295 CNS): > 100 µM
- TGI (HT29 colon): 61.5 µM
- TGI (HS 578T breast): > 100 µM
- TGI (MDA-MB-435): 30.2 µM
- TGI (HCT-116 colon): > 100 µM
- TGI (MOLT-4 leukemia): 45.4 µM
- TGI (SK-MEL-2 melanoma): 50.5 µM
- TGI (UACC-257 melanoma): 32.9 µM
- TGI (CAKI-1 renal): > 100 µM
- TGI (NCI/ADR-RES ovarian): > 100 µM
- TGI (LOX IMVI melanoma): 62.2 µM
- TGI (DU-145 prostate): 81.6 µM
- TGI (RXF 393 renal): 32.4 µM
- TGI (NCI-H23 lung): > 100 µM
- TGI (MCF7 breast): > 100 µM
- TGI (M14 melanoma): 70.4 µM
- TGI (BT-549 breast): > 100 µM
- TGI (SW-620 colon): > 100 µM
- TGI (SK-OV-3 ovarian): > 100 µM
- TGI (ACHN renal): > 100 µM
- TGI (SK-MEL-28 melanoma): > 100 µM
- TGI (IGROV1 ovarian): > 100 µM
- TGI (COLO 205 colon): > 100 µM
- TGI (NCI-H460 lung): > 100 µM
- TGI (U251 CNS): > 100 µM
- TGI (UO-31 renal): 57 µM
- TGI (OVCAR-5 ovarian): > 100 µM
- TGI (A549 NSCLC): > 100 µM
- TGI (SN12C renal): > 100 µM
- TGI (KM12 colon): > 100 µM
- TGI (PC-3 prostate): > 100 µM
- TGI (SK-MEL-5 melanoma): > 100 µM
- TGI (NCI-H226 lung): > 100 µM
- TGI (MALME-3M melanoma): > 100 µM
- TGI (HOP-92 NSCLC): > 100 µM
- TGI (OVCAR-8 ovarian): 65.2 µM
- TGI (OVCAR-3 ovarian): > 100 µM
- TGI (A498 renal): > 100 µM
- TGI (HL-60(TB) leukemia): 37 µM

SMILES: C/C(=C\CO)CC[C@@H]1[C@@]2(C)CCCC(C)(C)[C@@H]2CC[C@@]1(C)O
- TGI (MDA-MB-231 breast): 31 µM
- TGI (HCT-15 colon): 33.7 µM
- TGI (TK-10 renal): 31.3 µM
- TGI (OVCAR-4 ovarian): 34.2 µM
- TGI (HCC-2998 colon): 29.5 µM
- TGI (SNB-75 CNS): 34.7 µM
- TGI (RPMI-8226 leukemia): 36.5 µM
- TGI (K-562 leukemia): 34.7 µM
- TGI (SF-268 CNS): 32.4 µM
- TGI (SF-539 CNS): 32.4 µM
- TGI (786-0 renal): 39.8 µM
- TGI (SNB-19 CNS): 42.9 µM
- TGI (EKVX NSCLC): 51.5 µM
- TGI (NCI-H522 lung): 31.4 µM
- TGI (MDA-N): 38 µM
- TGI (T-47D breast): 51.3 µM
- TGI (UACC-62 melanoma): 27.1 µM
- TGI (CCRF-CEM leukemia): 51.5 µM
- TGI (SF-295 CNS): 33.7 µM
- TGI (HT29 colon): 51.2 µM
- TGI (HS 578T breast): 56.4 µM
- TGI (MDA-MB-435): 34.6 µM
- TGI (HCT-116 colon): 43.5 µM
- TGI (MOLT-4 leukemia): 69.2 µM
- TGI (SK-MEL-2 melanoma): 31.4 µM
- TGI (UACC-257 melanoma): 38 µM
- TGI (CAKI-1 renal): 72.1 µM
- TGI (NCI/ADR-RES ovarian): 31.9 µM
- TGI (LOX IMVI melanoma): 30.2 µM
- TGI (DU-145 prostate): 34.3 µM
- TGI (RXF 393 renal): 35 µM
- TGI (NCI-H23 lung): 40 µM
- TGI (MCF7 breast): 30.8 µM
- TGI (M14 melanoma): 53.6 µM
- TGI (BT-549 breast): 32.6 µM
- TGI (SW-620 colon): 50.5 µM
- TGI (SK-OV-3 ovarian): 57.1 µM
- TGI (ACHN renal): > 100 µM
- TGI (SK-MEL-28 melanoma): 43.2 µM
- TGI (IGROV1 ovarian): 35.5 µM
- TGI (COLO 205 colon): 32.7 µM
- TGI (NCI-H460 lung): 31.3 µM
- TGI (U251 CNS): 31 µM
- TGI (UO-31 renal): 50.3 µM
- TGI (OVCAR-5 ovarian): 49.3 µM
- TGI (A549 NSCLC): 92.7 µM
- TGI (SN12C renal): 33.8 µM
- TGI (KM12 colon): 43 µM
- TGI (PC-3 prostate): 30 µM
- TGI (SK-MEL-5 melanoma): 31.8 µM
- TGI (NCI-H226 lung): 33.4 µM
- TGI (MALME-3M melanoma): 36.3 µM
- TGI (HOP-92 NSCLC): 32.4 µM
- TGI (OVCAR-8 ovarian): 31.8 µM
- TGI (OVCAR-3 ovarian): 27.6 µM
- TGI (A498 renal): 30.7 µM
- TGI (HL-60(TB) leukemia): 45.7 µM
